Results from patent US20120264735A1 (priority 2009, published 2012).

What follows are molecules tested against T1, c-Met kinase (recombinant c-Met) (Homo sapiens, UniProt P08581) (assay: In vitro kinase assay I (homogeneous time-resolved fluorescence tyrosine kinase assay)).
T1 construct: 0.27 nM recombinant c-Met
Type: biochemical
In short: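 Biotinylated peptide (0.5 μM) phosphorylated by 0.2 nM recombinant c-Met with 50 μM MgATP, 60 min at room temperature, pH 7.4, 5% DMSO. EDTA stop; HTRF read with Eu-anti-phosphotyrosine antibody and streptavidin-APC. IC50 from 4-parameter logistic fit.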

T1 sequence (P08581 25-1390): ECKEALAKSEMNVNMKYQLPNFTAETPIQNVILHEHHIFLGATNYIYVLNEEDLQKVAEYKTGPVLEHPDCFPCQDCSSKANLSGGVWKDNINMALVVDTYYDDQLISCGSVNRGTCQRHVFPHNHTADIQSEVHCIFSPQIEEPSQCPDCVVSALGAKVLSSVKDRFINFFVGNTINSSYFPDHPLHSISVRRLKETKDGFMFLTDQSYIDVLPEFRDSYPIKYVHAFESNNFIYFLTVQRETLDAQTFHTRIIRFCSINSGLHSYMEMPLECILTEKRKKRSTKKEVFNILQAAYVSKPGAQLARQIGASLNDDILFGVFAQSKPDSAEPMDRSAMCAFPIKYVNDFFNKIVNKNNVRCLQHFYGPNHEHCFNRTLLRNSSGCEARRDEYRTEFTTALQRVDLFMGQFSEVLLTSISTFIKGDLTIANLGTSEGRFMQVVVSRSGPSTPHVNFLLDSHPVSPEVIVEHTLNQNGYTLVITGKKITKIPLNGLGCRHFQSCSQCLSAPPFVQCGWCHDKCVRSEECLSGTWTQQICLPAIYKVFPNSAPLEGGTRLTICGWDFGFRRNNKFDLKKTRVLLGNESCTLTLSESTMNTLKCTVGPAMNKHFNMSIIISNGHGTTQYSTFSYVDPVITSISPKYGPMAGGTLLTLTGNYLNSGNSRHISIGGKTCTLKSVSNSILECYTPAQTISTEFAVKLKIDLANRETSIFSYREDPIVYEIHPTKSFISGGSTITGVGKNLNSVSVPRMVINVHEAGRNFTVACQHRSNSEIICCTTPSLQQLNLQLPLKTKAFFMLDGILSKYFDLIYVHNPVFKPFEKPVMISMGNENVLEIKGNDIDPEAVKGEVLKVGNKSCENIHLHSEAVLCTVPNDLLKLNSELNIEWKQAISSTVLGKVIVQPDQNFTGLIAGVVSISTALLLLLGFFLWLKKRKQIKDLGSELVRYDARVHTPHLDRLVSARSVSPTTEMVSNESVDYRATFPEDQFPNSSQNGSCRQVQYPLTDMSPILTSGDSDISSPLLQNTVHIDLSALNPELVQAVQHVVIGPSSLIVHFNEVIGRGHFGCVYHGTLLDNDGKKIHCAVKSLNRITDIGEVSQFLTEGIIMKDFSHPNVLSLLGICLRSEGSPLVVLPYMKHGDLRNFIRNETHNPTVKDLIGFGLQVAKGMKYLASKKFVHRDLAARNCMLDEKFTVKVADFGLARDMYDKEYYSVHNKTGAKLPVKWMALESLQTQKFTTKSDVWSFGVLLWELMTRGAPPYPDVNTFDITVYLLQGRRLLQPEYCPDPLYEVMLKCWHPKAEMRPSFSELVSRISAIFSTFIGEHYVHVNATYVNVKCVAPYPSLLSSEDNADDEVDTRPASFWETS

IC50, 100 to 1000 nM:
CCOc1cnc(-c2cccc(C(C)c3nn(-c4cnn(C)c4)ccc3=O)c2)nc1 (single isomer, unassigned) [Example 201, 3-{(1S or R)-1-[3-(5-ethoxypyrimidin-2-yl)phenyl]ethyl}-1-(1-methyl-1H-pyrazol-4-yl)pyridazin-4(1H)-one]
COc1cnc(-c2cccc(C(C)c3nn(-c4cnn(C)c4)ccc3=O)c2)nc1 (single isomer, unassigned) [Example 203, 3-{(1S or R)-1-[3-(5-Methoxypyrimidin-2-yl)phenyl]ethyl}-1-(1-methyl-1H-pyrazol-4-yl)pyridazin-4(1H)-one]
CCOc1cnc(-c2cccc(C(CC)c3nn(-c4cnn(C)c4)ccc3=O)c2)nc1 (single isomer, unassigned) [Example 205, 3-{(1S or R)-1-[3-(5-ethoxypyrimidin-2-yl)phenyl]propyl}-1-(1-methyl-1H-pyrazol-4-yl)pyridazin-4(1H)-one]
CCCC(c1cccc(-c2ncc(OCC)cn2)c1)c1nn(-c2cnn(C)c2)ccc1=O (single isomer, unassigned) [Example 207, 3-{(1S or R)-1-[3-(5-ethoxypyrimidin-2-yl)phenyl]butyl}-1-(1-methyl-1H-pyrazol-4-yl)pyridazin-4(1H)-one]
CC(c1cccc(-c2ncc(OC(F)F)cn2)c1)c1nn(-c2cnn(C)c2)ccc1=O (single isomer, unassigned) [Example 209, 3-[(1S or R)-1-{3-[5-(difluoromethoxy)pyrimidin-2-yl]phenyl}ethyl]-1-(1-methyl-1H-pyrazol-4-yl)pyridazin-4(1H)-one]
CCn1cc(-n2ccc(=O)c(C(C)c3cccc(-c4ncc(OC5COC5)cn4)c3)n2)cn1 (single isomer, unassigned) [Example 213, 1-(1-ethyl-1H-pyrazol-4-yl)-3-((1S or R)-1-{3-[5-(oxetan-3-yloxy)pyrimidin-2-yl]phenyl}ethyl)pyridazin-4(1H)-one]
CC(c1cccc(-c2ncc(OC3COC3)cn2)c1)c1nn(-c2cnn(C)c2)ccc1=O (single isomer, unassigned) [Example 215, 1-(1-methyl-1H-pyrazol-4-yl)-3-((1S or R)-1-{3-[5-(oxetan-3-yloxy)pyrimidin-2-yl]phenyl}ethyl)pyridazin-4(1H)-one]
CCn1cc(-n2ccc(=O)c(C(C)c3cccc(-c4ncc(COC)cn4)c3)n2)cn1 (single isomer, unassigned) [Example 217, 1-(1-ethyl-1H-pyrazol-4-yl)-3-((1S or R)-1-{3-[5-(methoxymethyl)pyrimidin-2-yl]phenyl}ethyl)pyridazin-4(1H)-one]
COCc1cnc(-c2cccc(C(C)c3nn(-c4cnn(C)c4)ccc3=O)c2)nc1 (single isomer, unassigned) [Example 219, 3-((1S or R)-1-{3-[5-(methoxymethyl)pyrimidin-2-yl]phenyl}ethyl)-1-(1-methyl-1H-pyrazol-4-yl)pyridazin-4(1H)-one]
COCCOc1cnc(-c2cccc(C(C)c3nn(-c4cnn(C)c4)ccc3=O)c2)nc1 (single isomer, unassigned) [Example 222, 3-((1S or R)-1-{3-[5-(2-methoxyethoxy)pyrimidin-2-yl]phenyl}ethyl)-1-(1-methyl-1H-pyrazol-4-yl)pyridazin-4(1H)-one]
CCOc1cnc2ccc(C(C)c3nn(-c4cnn(CC)c4)ccc3=O)cc2c1 (single isomer, unassigned) [Example 226, 3-[(1S or R)-1-(3-ethoxyquinolin-6-yl)ethyl]-1-(1-ethyl-1H-pyrazol-4-yl)pyridazin-4(1H)-one]

IC50, < 100 nM:
Cn1cc(-n2ccc(=O)c(Cc3cccc(-c4ncn(CCC5CCCO5)n4)c3)n2)cn1 (racemic) [Example 711, rac-1-(1-methyl-1H-pyrazol-4-yl)-3-(3-{1-[2-(tetrahydrofuran-2-yl)ethyl]-1H-1,2,4-triazol-3-yl}benzyl)pyridazin-4(1H)-one]
Cn1cc(-n2ccc(=O)c(Cc3cccc(-c4ncn(CCC5CCOC5)n4)c3)n2)cn1 (racemic) [Example 717, rac-1-(1-methyl-1H-pyrazol-4-yl)-3-(3-{1-[2-(tetrahydrofuran-3-yl)ethyl]-1H-1,2,4-triazol-3-yl}benzyl)pyridazin-4(1H)-one]
Cn1cc(-n2ccc(=O)c(Cc3cccc(-c4ncn(CCCC5CCCO5)n4)c3)n2)cn1 (racemic) [Example 721, rac-1-(1-methyl-1H-pyrazol-4-yl)-3-(3-{1-[3-(tetrahydrofuran-2-yl)propyl]-1H-1,2,4-triazol-3-yl}benzyl)pyridazin-4(1H)-one]
CCOc1cnc(-c2cccc(C(C)c3nn(-c4cccc(C(N)=O)c4)ccc3=O)c2)nc1 (racemic) [Example 738, rac-3-[3-{1-[3-(5-ethoxypyrimidin-2-yl)phenyl]ethyl}-4-oxopyridazin-1(4H)-yl]lbenzamide]
Cn1cc(-n2ccc(=O)c(Cc3cccc(-c4ncc([C@]5(F)CCNC[C@@H]5O)cn4)c3)n2)cn1 (racemic) [Example 749, rac-3-({3-[5-(trans-4-Fluoro-3-hydroxypiperidin-4-yl)pyrimidin-2-yl]benzyl}-1-(1-methyl-1H-pyrazol-4-yl)pyridazin-4(1H)-one]
Cn1cc(-n2ccc(=O)c(Cc3cccc(-c4ncc(C5CCOC5)cn4)c3)n2)cn1 (racemic) [compound 199, rac-1-(1-methyl-1H-pyrazol-4-yl)-3-{3-[5-(tetrahydrofuran-3-yl)pyrimidin-2-yl]benzyl} pyridazin-4(1H)-one]
CCOc1cnc(-c2cccc(C(C)c3nn(-c4cnn(C)c4)ccc3=O)c2)nc1 (single isomer, unassigned) [Example 202, 3-{(1R or S)-1-[3-(5-ethoxypyrimidin-2-yl)phenyl]ethyl}-1-(1-methyl-1H-pyrazol-4-yl)pyridazin-4(1H)-one]
COc1cnc(-c2cccc(C(C)c3nn(-c4cnn(C)c4)ccc3=O)c2)nc1 (single isomer, unassigned) [Example 204, 3-{(1R or S)-1-[3-(5-methoxypyrimidin-2-yl)phenyl]ethyl}-1-(1-methyl-1H-pyrazol-4-yl)pyridazin-4(1H)-one]
CCOc1cnc(-c2cccc(C(CC)c3nn(-c4cnn(C)c4)ccc3=O)c2)nc1 (single isomer, unassigned) [Example 206, 3-{(1R or S)-1-[3-(5-ethoxypyrimidin-2-yl)phenyl]propyl}-1-(1-methyl-1H-pyrazol-4-yl)pyridazin-4(1H)-one]
CCCC(c1cccc(-c2ncc(OCC)cn2)c1)c1nn(-c2cnn(C)c2)ccc1=O (single isomer, unassigned) [Example 208, 3-{(1R or S)-1-[3-(5-ethoxypyrimidin-2-yl)phenyl]butyl}-1-(1-methyl-1H-pyrazol-4-yl)pyridazin-4(1H)-one]
CC(c1cccc(-c2ncc(OC(F)F)cn2)c1)c1nn(-c2cnn(C)c2)ccc1=O (single isomer, unassigned) [Example 210, 3-[(1R or S)-1-{3-[5-(difluoromethoxy)pyrimidin-2-yl]phenyl}ethyl]-1-(1-methyl-1H-pyrazol-4-yl)pyridazin-4(1H)-one]
CC(c1cccc(-c2ncc(OC3CCOCC3)cn2)c1)c1nn(-c2cnn(C)c2)ccc1=O (single isomer, unassigned) [Example 211, 1-(1-methyl-1H-pyrazol-4-yl)-3-[(1S or R)-1-{3-[5-(tetrahydro-2H-pyran-4-yloxy)pyrimidin-2-yl]phenyl}ethyl]pyridazin-4(1H)-one]
CC(c1cccc(-c2ncc(OC3CCOCC3)cn2)c1)c1nn(-c2cnn(C)c2)ccc1=O (single isomer, unassigned) [Example 212, 1-(1-methyl-1H-pyrazol-4-yl)-3-[(1R or S)-1-{3-[5-(tetrahydro-2H-pyran-4-yloxy)pyrimidin-2-yl]phenyl}ethyl]pyridazin-4(1H)-one]
CCn1cc(-n2ccc(=O)c(C(C)c3cccc(-c4ncc(OC5COC5)cn4)c3)n2)cn1 (single isomer, unassigned) [Example 214, 1-(1-ethyl-1H-pyrazol-4-yl)-3-((1R or S)-1-{3-[5-(oxetan-3-yloxy)pyrimidin-2-yl]phenyl}ethyl)pyridazin-4(1H)-one]
CC(c1cccc(-c2ncc(OC3COC3)cn2)c1)c1nn(-c2cnn(C)c2)ccc1=O (single isomer, unassigned) [Example 216, 1-(1-methyl-1H-pyrazol-4-yl)-3-((1R or S)-1-{3-[5-(oxetan-3-yloxy)pyrimidin-2-yl]phenyl}ethyl)pyridazin-4(1H)-one]
CCn1cc(-n2ccc(=O)c(C(C)c3cccc(-c4ncc(COC)cn4)c3)n2)cn1 (single isomer, unassigned) [Example 218, 1-(1-ethyl-1H-pyrazol-4-yl)-3-((1R or S)-1-{3-[5-(methoxymethyl)pyrimidin-2-yl]phenyl}ethyl)pyridazin-4(1H)-one]
COCc1cnc(-c2cccc(C(C)c3nn(-c4cnn(C)c4)ccc3=O)c2)nc1 (single isomer, unassigned) [Example 220, 3-((1R or S)-1-{3-[5-(methoxymethyl)pyrimidin-2-yl]phenyl}ethyl)-1-(1-methyl-1H-pyrazol-4-yl)pyridazin-4(1H)-one]
COCCOc1cnc(-c2cccc(C(C)c3nn(-c4cnn(C)c4)ccc3=O)c2)nc1 (single isomer, unassigned) [Example 223, 3-((1R or S)-1-{3-[5-(2-methoxyethoxy)pyrimidin-2-yl]phenyl}ethyl)-1-(1-methyl-1H-pyrazol-4-yl)pyridazin-4(1H)-one]

IC50, 1000 to 3000 nM:
Cn1cc(-n2ccc(=O)c(C(F)c3ccc4ncccc4c3)n2)cn1 (racemic) [Example 753, rac-3-[Fluoro(quinolin-6-yl)methyl]-1-(1-methyl-1H-pyrazol-4-yl)pyridazin-4(1H)-one]
